{
  "source": "patent US20260356834A1",
  "about": "“ANTICONVULSIVE COMPOUNDS AND USES THEREOF” (Jazz Pharmaceuticals Research UK Limite, priority 2023, published 2026)",
  "key": {"RjOrl: Swiss mice [1]": {"test_system": "RjOrl: Swiss mice", "test": "mouse 6 Hz (44 mA) model of partial seizures", "assay_type": "in vivo", "details": "200 mg/kg i.p., 30 min; vs vehicle (HPMC)"}, "DBA/2 mice [2]": {"test_system": "DBA/2 mice", "details": "De Sarro et al., 2017; cited from earlier work"}, "C57BL/6J mice": {"test_system": "C57BL/6J mice", "test": "mouse maximal electroshock seizure threshold model (MEST)", "assay_type": "in vivo", "details": "150 mg/kg i.p., 30 min", "procedure": "Vehicle=1:2:17 ethanol:Solutol® (Kolliphor® HS 15):saline: 1 mL of ethanol and 2 mL of solutol were warmed to 60 °C and 17 mL of 0.9% saline was added slowly. […]\nVehicle=0.5% HPMC and 0.1% Tween 80:0.5% HPMC and 0.1% Tween 80 in water."}, "DBA/2 mice [3]": {"test_system": "DBA/2 mice", "test": "mouse audiogenic seizure test", "assay_type": "in vivo", "details": "180 mg/kg i.p., 30 min", "text": "The Audiogenic Seizure Test, which detects anticonvulsant activity, follows that described by Durmüller et al., 1993. Mice of the DBA/2 strain undergo an age-dependent sequence of convulsions (wild-running, clonic convulsion, tonic convulsion and respiratory arrest) within 60 seconds of exposure to a loud sound of 110-120 dB. The type of convulsions are consistent with aspects of generalised seizure in humans.\nMale DBA/2 mice (3-4 weeks old) were supplied by Janvier Labs (53940 Le Genest-Saint-Isle, France); weight range 6-13 g at the beginning of the experiment. Animals were acclimatized to the Test Facility for 1 day after delivery and randomly housed in groups of 5 in macrolon cages on wood litter with free access to food and water.\n(§1) The animal house was maintained under artificial lighting (12 hours) between 7:00 and 19:00 in a controlled ambient temperature of 22±2 °C and relative humidity between 30-70%.\nMice were individually transferred (at 3-5 minutes intervals) from the preparation room into an adjacent experimental room and body temperature was measured using a rectal thermometer (Digital Laboratory Thermometer: Model BAT-12). Immediately after, they were placed in a Plexiglas jar (Diameter=40 cm; Height=35 cm) mounted with an electric bell (110-120 dB, supplier Leroy Merlin, France). Upon activating the bell, the occurrences and latencies to wild running fits, clonic and tonic seizures were measured. Deaths were also recorded. The bell was activated until a tonic seizure occurred, or for a maximum of 60 seconds.\nThe experiment included groups of 10 mice per group. Experimenters were only partially blinded to treatment group as pre-treatment times were different.\nThe test substance was evaluated at various doses, administered i.p. (10 ml/kg) 15 or 30 minutes before the test, and compared with a vehicle control group.\nDue to the number of animals tested, the experiment was divided in 2 sub-experiments on 2 separate days (7 days apart) with 5 mice per group in each sub-experiment.\nData were tested for normality using d'Agostino-Pearson Test and found to not follow a normal distribution. Statistical outliers were not identified or removed because no behavioural outliers were identified. Quantitative data (latencies) with the test substance were analyzed by comparing treated groups with vehicle control using Kruskal-Wallis test followed by Dunn's multiple comparisons test. Quantitative data with the reference substance were analyzed using Mann-Whitney U test. Quantal data (frequencies) were analyzed by comparing treated groups with vehicle control using Fisher's Exact Probability test."}, "RjOrl: Swiss mice [4]": {"test_system": "RjOrl: Swiss mice", "test": "mouse 6 Hz (44 mA) model of partial seizures", "assay_type": "in vivo", "details": "200 mg/kg i.p., 30 min", "text": "The 6 Hz (44 mA) model of partial seizures, which detects anticonvulsant activity, follows that described by Brown et al. 1953.\n[…] A decrease in forelimb clonus score is indicative of protection from seizure and an anticonvulsive effect.\nWhen conducted at a 44 mA stimulus intensity in mice, the 6 Hz test can differentiate compounds with potential for the treatment of focal-onset seizures that are often resistant to current anti-epileptic drugs.\nMale RjOrl: Swiss mice (Janvier Labs, 53940 Le Genest-Saint-Isle, France), 5 weeks old, weighing 27-38 g at the beginning of the experiment. Animals were acclimatized to the Test Facility for at least 5 days after delivery and randomly housed in groups of 5 to 8 in macrolon cages on wood litter with free access to food and water.\nas §1\nBefore transcorneal stimulation, a drop of tetracaine solution (1%) was applied on each eye of the mouse for local anesthesia. Between 1-10 minutes later and at the designated pre-treatment (see below), the mice were administered a rectangular current (44 mA, rectangular pulse: 0.2 ms pulse width, 3 s duration, (6 Hz) via corneal electrodes connected to a constant current shock generator (Ugo Basile: type 7801).\nThe results for the number of seizures as reflected by forelimb clonus were recorded immediately after current administration. Forelimb clonus was scored as absent (0=no forelimb clonus), mild (1=clonus with one forelimb) and strong (2=clonus with both forelimbs). The experimenters were blinded to the treatment. […]\nThe administration volume was 10 mL/kg.\nDue to the number of animals tested, the experiment was divided in 2 sub-experiments on 2 consecutive days with equivalent numbers of mice per group and per sub-experiment.\nData were discrete values so considered to be non-normally distributed based on validation data, therefore non-parametric tests were utilized. Quantitative data (scores) with the test substance were analyzed by comparing test compound-treated groups with the 1:2:17 vehicle control using Kruskal-Wallis test with Dunn's multiple comparisons test when the Kruskal-Wallis test was significant. Quantitative data with the reference substance were analyzed using Mann-Whitney U test as compared to saline vehicle."}},
  "note": "Several values for one entry are separate records, joined by “and”; a condition that tells them apart may be missing. Equal entries are not always repeated. Marks after values point to notes of the source that are not given here.",
  "data": [
    {"molecule": "CCCC(CCC)C(=O)[O-].[Na+]", "note": "[Sodium Valproate, sodium valproate, reference compound]", "values": [
      {"measurement": "Change from vehicle (forelimb clonus)", "setting": "RjOrl: Swiss mice [1]", "result": "−60", "unit": "%***"},
      {"measurement": "protection from clonic convulsions, tonic convulsions and respiratory arrest", "setting": "DBA/2 mice [2]", "result": "protect DBA/2 mice from clonic convulsions, tonic convulsions and respiratory arrest"},
      {"measurement": "CC50 +/− SEM", "setting": "C57BL/6J mice; 1:1:18 ethanol:Kolliphor EL:saline", "result": "139.2 ± 2.1", "unit": "mA"},
      {"measurement": "CC50 +/− SEM", "setting": "C57BL/6J mice; 1:2:17 ethanol:Solutol:saline", "result": "104.2 ± 1.0", "unit": "mA"},
      {"measurement": "CC50 +/− SEM", "setting": "C57BL/6J mice; study with HPMC vehicle", "result": ">300.0 mA and 215.8 ± 30.1 mA"},
      {"measurement": "Change from vehicle (CC50)", "setting": "C57BL/6J mice; vs 1:1:18 ethanol:Kolliphor EL:saline vehicle", "result": 457, "unit": "%^###"},
      {"measurement": "Change from vehicle (CC50)", "setting": "C57BL/6J mice; vs 1:2:17 ethanol:Solutol:saline vehicle", "result": 346, "unit": "%^###"},
      {"measurement": "Change from vehicle (CC50)", "setting": "C57BL/6J mice; vs HPMC vehicle", "result": ">1043%*** and 714%***"},
      {"measurement": "Clonic convulsion - presence, %", "setting": "DBA/2 mice [3]", "result": 30, "unit": "%"},
      {"measurement": "Tonic convulsion - presence, %", "setting": "DBA/2 mice [3]", "result": 0, "unit": "%"},
      {"measurement": "Wild running - presence, %", "setting": "DBA/2 mice [3]", "result": 30, "unit": "%"},
      {"measurement": "latencies to clonic convulsions (significance in words)", "setting": "DBA/2 mice [3]", "result": "significantly increased"},
      {"measurement": "latencies to tonic convulsions (significance in words)", "setting": "DBA/2 mice [3]", "result": "significantly increased"},
      {"measurement": "latencies to wild running (significance in words)", "setting": "DBA/2 mice [3]", "result": "significantly increased"},
      {"measurement": "number of mice displaying clonic convulsions (significance in words)", "setting": "DBA/2 mice [3]", "result": "significantly decreased"},
      {"measurement": "number of mice displaying tonic convulsions (significance in words)", "setting": "DBA/2 mice [3]", "result": "significantly decreased"},
      {"measurement": "number of mice displaying wild running (significance in words)", "setting": "DBA/2 mice [3]", "result": "significantly decreased"},
      {"measurement": "Clonic convulsion - presence, Total", "setting": "DBA/2 mice [3]; number of mice, n = 10", "result": 1},
      {"measurement": "Tonic convulsion - presence, Total", "setting": "DBA/2 mice [3]; number of mice, n = 10", "result": 0},
      {"measurement": "Wild running - presence, Total", "setting": "DBA/2 mice [3]; number of mice, n = 10", "result": 1},
      {"measurement": "Change from vehicle 1 (forelimb clonus)", "setting": "RjOrl: Swiss mice [4]; vs vehicle 1 (saline)", "result": "−82", "unit": "%***"},
      {"measurement": "Change from vehicle 2 (forelimb clonus)", "setting": "RjOrl: Swiss mice [4]; vs vehicle 2 (1:2:17 ethanol:Kolliphor HS15:saline)", "result": "−89", "unit": "%***"}
    ]}
  ]
}
